Test results: PubChem BioAssay (NCI)
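Compound exposure: 48 hours, 5 concentrations, 96-well plates. Abbreviation: GI50, concentration required for 50% inhibition of growth. At the TGI there is no net growth.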

Assays:
Assay in all cases: NCI anticancer screen, dose series, 48 h
[1] = test system: SNB-19 CNS
[2] = test system: 786-0 renal
[3] = test system: MOLT-4 leukemia
[4] = test system: SK-MEL-28 melanoma
[5] = test system: HT29 colon
[6] = test system: OVCAR-8 ovarian
[7] = test system: SN12C renal
[8] = test system: HOP-92 NSCLC
[9] = test system: RXF 393 renal
[10] = test system: MDA-MB-435

SMILES: Fc1cccc(COc2ccc(Nc3ncnc4onc(-c5ccccc5)c34)cc2)c1
- GI50 [1]: 0.339 µM
- TGI [1]: > 100 µM
- GI50 [2]: 0.691 µM
- TGI [2]: 21.2 µM
- GI50 [3]: 0.27 µM
- TGI [3]: > 100 µM
- GI50 [4]: 16.4 µM
- TGI [4]: > 100 µM
- GI50 [5]: 0.0495 µM
- TGI [5]: > 34 µM
- GI50 [6]: 0.262 µM
- TGI [6]: > 100 µM
- GI50 [7]: 0.347 µM
- TGI [7]: > 100 µM
- GI50 [8]: 0.264 µM
- TGI [8]: 62.8 µM
- GI50 [9]: 0.219 µM
- TGI [9]: 1.35 µM

SMILES: Cc1cccc(-c2nnc3s/c(=C\c4ccc(N(C)C)cc4)c(=O)n23)c1
- TGI [1]: > 100 µM
- TGI [2]: > 100 µM
- TGI [3]: > 100 µM
- TGI [4]: > 100 µM
- TGI [6]: > 100 µM
- TGI [7]: > 100 µM
- TGI [8]: > 100 µM
- TGI [9]: > 100 µM

SMILES: Cc1ccc(/C=C/C(=O)c2ccc(Cl)c(Cl)c2)cc1
- TGI [1]: > 100 µM
- TGI [2]: > 100 µM
- TGI [3]: > 100 µM
- TGI [4]: > 100 µM
- TGI [5]: > 100 µM
- TGI [6]: > 100 µM
- TGI [7]: > 100 µM
- TGI [9]: > 100 µM

SMILES: CC(Oc1ccc2c(-c3ccc(Cl)cc3)cc(=O)oc2c1)C(=O)O (stereo not drawn)
- TGI [1]: > 100 µM
- TGI [2]: > 100 µM
- TGI [3]: > 100 µM
- TGI [4]: > 100 µM
- TGI [5]: > 100 µM
- TGI [6]: > 100 µM
- TGI [7]: > 100 µM
- TGI [8]: > 100 µM
- TGI [9]: > 100 µM

SMILES: O=[N+]([O-])c1nccn1CC(O)c1ccccc1 (stereo not drawn)
- TGI [1]: > 100 µM
- TGI [2]: > 100 µM
- TGI [3]: > 100 µM
- TGI [4]: > 100 µM
- TGI [5]: > 100 µM
- TGI [6]: > 100 µM
- TGI [7]: > 100 µM
- TGI [8]: > 100 µM
- TGI [9]: > 100 µM

SMILES: COc1ccc(/C=C/c2cc(OC)c(OC(C)=O)c(OC)c2)cc1
- TGI [1]: > 100 µM
- TGI [2]: > 100 µM
- TGI [3]: 95.9 µM
- TGI [4]: 25.3 µM
- TGI [5]: > 100 µM
- TGI [6]: > 100 µM
- TGI [7]: 75.2 µM
- TGI [8]: 65.1 µM

SMILES: CSC(=NC(=O)c1ccccc1Cl)SCCSC(=NC(=O)c1ccccc1Cl)SC
- TGI [1]: > 100 µM
- TGI [2]: > 100 µM
- TGI [3]: > 100 µM
- TGI [4]: > 100 µM
- TGI [5]: > 100 µM
- TGI [6]: > 100 µM
- TGI [7]: > 100 µM
- TGI [8]: > 100 µM
- TGI [9]: > 100 µM

SMILES: CCOC(=O)C12CCCC1(O)N(NC(=O)OC)C(C)=C2C(=O)OC (stereo not drawn)
- TGI [1]: > 100 µM
- TGI [2]: 92.2 µM
- TGI [3]: > 100 µM
- TGI [4]: > 100 µM
- TGI [5]: > 100 µM
- TGI [6]: > 100 µM
- TGI [7]: > 100 µM
- TGI [8]: > 100 µM

SMILES: O=C(C[n+]1ccccc1)N/N=C(/CCC(=O)N(Cc1ccccc1)Cc1ccccc1)CC(=O)c1ccccc1
- TGI [1]: > 100 µM
- TGI [2]: > 100 µM
- TGI [3]: > 100 µM
- TGI [4]: > 100 µM
- TGI [5]: > 100 µM
- TGI [6]: > 100 µM
- TGI [7]: > 100 µM
- TGI [8]: > 100 µM
- TGI [9]: > 100 µM

SMILES: O=C(c1c(F)c(F)c(F)c(F)c1F)c1c(F)c(F)c(F)c(F)c1F
- TGI [1]: 16.3 µM
- TGI [10]: 3.21 µM
- TGI [2]: 1.64 µM
- TGI [3]: 0.764 µM
- TGI [4]: 7.92 µM
- TGI [5]: 3.08 µM
- TGI [6]: 2.97 µM
- TGI [8]: 3.43 µM
- TGI [9]: 2.94 µM

SMILES: CSC(=O)C[C@@]12O[C@@H]([C@@H](C)C3CCC4[C@@H]5C(O)CC6=CC(=O)C=C[C@]6(C)C5CC[C@@]43C)C[C@](C)(O1)C(C)(C)O2 (stereo partly drawn)
- TGI [1]: 33.8 µM
- TGI [2]: 30.2 µM
- TGI [4]: 32.1 µM
- TGI [5]: 27.6 µM
- TGI [6]: 37.9 µM
- TGI [7]: 31.5 µM
- TGI [8]: 23 µM
- TGI [9]: 24.4 µM

SMILES: COc1ccc2c(c1)c(-c1nc(-c3cn(C)c4ccncc34)cs1)cn2C
- GI50 [1]: 2.26 µM
- TGI [1]: 4.73 µM
- GI50 [10]: 1.59 µM
- TGI [10]: 2.97 µM
- GI50 [2]: 1.6 µM
- TGI [2]: 3.15 µM
- GI50 [4]: 1.71 µM
- TGI [4]: 3.15 µM
- GI50 [5]: 1.43 µM
- TGI [5]: 3.1 µM
- GI50 [7]: 1.85 µM
- TGI [7]: 3.49 µM
- GI50 [8]: 1.96 µM
- TGI [8]: 3.79 µM
- GI50 [9]: 1.71 µM
- TGI [9]: 3.21 µM

SMILES: COc1ccc(CC(=O)NCCc2ccc(OC)c(OC)c2OC)cc1
- TGI [1]: > 100 µM
- TGI [2]: > 100 µM
- TGI [3]: > 100 µM
- TGI [4]: > 100 µM
- TGI [5]: > 100 µM
- TGI [6]: > 100 µM
- TGI [7]: > 100 µM
- TGI [9]: > 100 µM

SMILES: [N-]=[N+]=NCN1C(=O)C2C3C=CC(C2C1=O)C1C2C(=O)N(CN=[N+]=[N-])C(=O)C2C31 (stereo not drawn)
- TGI [1]: > 100 µM
- TGI [10]: > 100 µM
- TGI [2]: > 100 µM
- TGI [4]: > 100 µM
- TGI [5]: > 100 µM
- TGI [6]: > 100 µM
- TGI [7]: > 100 µM
- TGI [8]: > 100 µM

SMILES: C=C(C)[C@@H]1CC[C@]2(CO)CC[C@]3(C)[C@H](CC[C@@H]4[C@@]5(C)CCCNC(C)(C)[C@@H]5CC[C@]43C)[C@@H]12
- GI50 [1]: 1.75 µM
- TGI [1]: 3.2 µM
- GI50 [2]: 1.62 µM
- TGI [2]: 3.16 µM
- GI50 [3]: 1.79 µM
- TGI [3]: 4.5 µM
- GI50 [4]: 1.62 µM
- TGI [4]: 3.16 µM
- GI50 [6]: 1.83 µM
- TGI [6]: 3.51 µM
- GI50 [7]: 1.62 µM
- TGI [7]: 3.03 µM
- GI50 [8]: 1.73 µM
- TGI [8]: 3.33 µM
- GI50 [9]: 1.68 µM
- TGI [9]: 3.18 µM

SMILES: COC(=O)CCC(=O)Nc1ccc(Cl)cc1C
- TGI [1]: > 100 µM
- TGI [2]: > 100 µM
- TGI [3]: > 100 µM
- TGI [4]: > 100 µM
- TGI [5]: > 100 µM
- TGI [6]: > 100 µM
- TGI [7]: > 100 µM
- TGI [8]: > 100 µM
- TGI [9]: > 100 µM

SMILES: COc1ccc(C(=O)C2CCC(C(=O)O)C2)cc1 (stereo not drawn)
- TGI [1]: > 100 µM
- TGI [2]: > 100 µM
- TGI [3]: > 100 µM
- TGI [4]: > 100 µM
- TGI [5]: > 100 µM
- TGI [6]: > 100 µM
- TGI [7]: > 100 µM
- TGI [8]: > 100 µM
- TGI [9]: > 100 µM

SMILES: NC(=O)CC1OC(=O)Cc2cc3c(c(O)c21)C(=O)c1c(O)cccc1C3=O (stereo not drawn)
- TGI [1]: > 100 µM
- TGI [10]: > 100 µM
- TGI [2]: > 100 µM
- TGI [3]: > 100 µM
- TGI [4]: > 100 µM
- TGI [5]: > 100 µM
- TGI [6]: > 100 µM
- TGI [7]: > 100 µM
- TGI [8]: > 100 µM

SMILES: CC(=O)OC12C(C)=C(C)C(=O)N1c1ccccc1N2C(C)=O (stereo not drawn)
- TGI [1]: > 100 µM
- TGI [2]: > 100 µM
- TGI [3]: > 100 µM
- TGI [4]: > 100 µM
- TGI [5]: > 100 µM
- TGI [6]: > 100 µM
- TGI [8]: > 100 µM
- TGI [9]: > 100 µM

SMILES: CCCCCCCCCCCCSC(=S)c1c(C)[nH]n(-c2ccccc2)c1=O
- TGI [1]: > 50 µM
- TGI [2]: > 50 µM
- TGI [3]: 46.1 µM
- TGI [4]: > 50 µM
- TGI [5]: 36.6 µM
- TGI [6]: > 50 µM
- TGI [7]: > 50 µM
- TGI [8]: > 50 µM
- TGI [9]: 24.5 µM

SMILES: Nc1nc(=O)n(C2CCC(CO)O2)cc1F (stereo not drawn)
- TGI [1]: > 100 µM
- TGI [2]: > 100 µM
- TGI [3]: > 100 µM
- TGI [4]: > 100 µM
- TGI [5]: > 100 µM
- TGI [6]: > 100 µM
- TGI [7]: > 100 µM
- TGI [8]: > 100 µM
- TGI [9]: > 100 µM

SMILES: CC(C)(C)C(=O)N1C(C(=O)O)Cc2ccccc2[C@@H]1Cc1ccccc1 (stereo partly drawn)
- TGI [1]: > 100 µM
- TGI [2]: > 100 µM
- TGI [3]: > 100 µM
- TGI [4]: > 100 µM
- TGI [5]: > 100 µM
- TGI [6]: > 100 µM
- TGI [7]: > 100 µM
- TGI [8]: > 100 µM
- TGI [9]: > 100 µM
